Paper PMC6560211, “ApoAI-derived peptide increases glucose tolerance and prevents formation of atherosclerosis in mice” (Diabetologia, 2019)
No end group written: not given here.

What was measured:
INS-1E cells = assay: Glucose-stimulated insulin secretion assay; format: cell-based, rat; details: 2 h preincubation with RG54 at 3.3 mmol/l glucose, then 1 h at 20 mmol/l glucose without peptide; ELISA; three independent experiments
Procedure: INS-1E cells were preincubated for 2 h with HEPES KRB supplemented with 3.3 mmol/l glucose and RG54, then stimulated for 1 h with HEPES KRB supplemented with either 3.3 or 20 mmol/l glucose but no RG54 peptide, and insulin secretion was analysed using ELISA (Mercodia, Uppsala, Sweden). See ESM Methods for more details.
Fig. 3 RG54 induces skeletal muscle glucose uptake and primes INS-1E cells to increase GSIS. (a) C2C12 skeletal muscle myotubes were incubated in the absence or presence of different concentrations of RG54 or with insulin, followed by glucose uptake measurements. Values are means ± SEM from three independent experiments. *p≤0.05, **p≤0.01, ***p≤0.001 vs control. […] Insulin secretion was measured after 1 h glucose challenge. […]
Peptide concentration was determined at 205 nm using a NanoDrop 2000c spectrophotometer (Thermo Scientific) and integrity was analysed by Tris-Tricine SDS-PAGE followed by coomassie staining or by circular dichroism spectroscopy (CD). […]
The primary goal of this study was to investigate the anti -diabetic and anti-atherosclerotic efficacy of a novel ApoA -I derived peptide. Using a range of in vitro models, we assessed the effects of the peptide on HDL formation, cholesterol efflux, insulin secretion, and non -insulin dependent glucose uptake. […] Peptide effects were measured relative to full length ApoA -I and vehicle controls. […]

J774 macrophages = assay: Cholesterol efflux assay; format: cell-based, mouse
Procedure: The mouse macrophage-like cell line J774 (ATCC TIB-67), loaded with ^3H-cholesterol, was used for cholesterol efflux to acceptors (RG54 or ApoA-I) as previously described.
To investigate the functionality of the RG54 peptide in a physiological context, cholesterol efflux from J774 macrophages was employed. Cultured macrophages were loaded with radioactive cholesterol, then incubated for 2 or 4 h with RG54 peptide or ApoA-I at the shown concentrations, followed by quantification of the amount of effluxed ^3H-cholesterol (Fig. 1a,b). […] As most circulating ApoA-I is bound to lipids in various species of HDL, and as the RG54 peptide was shown in the lipid clearance assay to efficiently associate with lipids, we reasoned that lipidation of the RG54 peptide might improve its catalytic activity. To explore this, RG54 was first incubated with lipids as described in ESM Fig. 4d, followed by comparative analyses of the catalytic capacities in cholesterol efflux from cholesterol-loaded macrophages.
Fig. 1 Cholesterol efflux activity of RG54 compared with ApoA-I. (a, b) Concentration dependence of cholesterol efflux from ^3H-cholesterol-labelled J774 cells by lipid-free RG54 or ApoA-I was measured after 2 h (a) or 4 h (b). n=5 for both. Vmax (c) and KM (d) were calculated using the Michaelis–Menten equation. (e–g) Efflux activity of lipid-free (LF) and lipid-bound (LB) RG54 was compared after 2 h. n=3. An acyl CoA:cholesterol O-acyltransferase (ACAT) inhibitor and 8-(4-chlorophenylthio; CPT)-cAMP were used in all experiments to prevent formation of cholesteryl esters of ^3H-cholesterol and to induce expression of ABCA1, respectively. Values are means ± SEM. **p≤0.01, ***p≤0.001

Ac-AEYHAKATEHLSTLSEKAKPALEDLRQGLLPVLESFKVSFLSALEEYTKKLNTQ [RG54]
GSIS compared with control cells (INS-1E cells): up to a twofold increase
Vmax of cholesterol efflux, lipid-bound vs lipid-free (J774 macrophages; RG54 first incubated with lipids (DMPC), 2 h, n=3): twofold increase
Vmax of cholesterol efflux (J774 macrophages; lipid-free RG54 compared with ApoA-I, Michaelis-Menten, n=5): significantly lower
cholesterol efflux (J774 macrophages; lipid-free, 3H-cholesterol-loaded J774, 2 or 4 h, ACAT inhibitor and CPT-cAMP, n=5): dose-dependent manner
